Columns and labels:
NCI-H23 = experiment: Growth inhibition of human NCI-H23 cells incubated for 48 hrs by sulforhodamine B assay; type: functional, cell-based; details: NCI-H23, 48 h
HCC 2998 = experiment: Growth inhibition of human HCC2998 cells incubated for 48 hrs by sulforhodamine B assay; type: functional, cell-based; details: HCC 2998, 48 h
UACC-62 = experiment: Growth inhibition of human UACC62 cells incubated for 48 hrs by sulforhodamine B assay; type: functional, cell-based; details: UACC-62, 48 h
OVCAR-5 = experiment: Growth inhibition of human OVCAR5 cells incubated for 48 hrs by sulforhodamine B assay; type: functional, cell-based; details: OVCAR-5, 48 h
BT-549 = experiment: Growth inhibition of human BT549 cells incubated for 48 hrs by sulforhodamine B assay; type: functional, cell-based; details: BT-549, 48 h
HL-60(TB) = experiment: Growth inhibition of human HL-60(TB) cells assessed as cell growth at 0.01 uM incubated for 48 hrs by sulforhodamine B assay relative to control; type: functional; details: HL-60, 48 h, read-out: Activity
SR [1] = experiment: Growth inhibition of human SR cells assessed as cell growth at 0.01 uM incubated for 48 hrs by sulforhodamine B assay relative to control; type: functional; details: read-out: Activity
A549 [2] = experiment: Growth inhibition of human A549/ATCC cells assessed as cell growth at 0.01 uM incubated for 48 hrs by sulforhodamine B assay relative to control; type: functional; details: A549, 48 h, read-out: Activity
HT-29 = experiment: Growth inhibition of human HT-29 cells assessed as cell growth at 0.01 uM incubated for 48 hrs by sulforhodamine B assay relative to control; type: functional; details: HT-29, 48 h, read-out: Activity
LOX IMVI = experiment: Growth inhibition of human LOXIMVI cells assessed as cell growth at 0.01 uM incubated for 48 hrs by sulforhodamine B assay relative to control; type: functional; details: read-out: Activity
SK-MEL-5 [3] = experiment: Growth inhibition of human SK-MEL-5 cells assessed as cell growth at 0.01 uM incubated for 48 hrs by sulforhodamine B assay relative to control; type: functional; details: SK-MEL-5, 48 h, read-out: Activity
SN12C = experiment: Growth inhibition of human SN12C cells assessed as cell growth at 0.01 uM incubated for 48 hrs by sulforhodamine B assay relative to control; type: functional; details: read-out: Activity
PC-3 [4] = experiment: Growth inhibition of human PC3 cells assessed as cell growth at 0.01 uM incubated for 48 hrs by sulforhodamine B assay relative to control; type: functional; details: PC-3, 48 h, read-out: Activity
U-251 = experiment: Growth inhibition of human U251 cells assessed as cell growth at 0.1 uM incubated for 48 hrs by sulforhodamine B assay relative to control; type: functional; details: U-251, 48 h, read-out: Activity
SK-MEL-2 [5] = experiment: Growth inhibition of human SK-MEL-2 cells assessed as cell growth at 0.1 uM incubated for 48 hrs by sulforhodamine B assay relative to control; type: functional; details: SK-MEL-2, 48 h, read-out: Activity
SK-MEL-5 [6] = experiment: Growth inhibition of human SK-MEL-5 cells assessed as cell growth at 0.1 uM incubated for 48 hrs by sulforhodamine B assay relative to control; type: functional; details: SK-MEL-5, 48 h, read-out: Activity
PC-3 [7] = experiment: Growth inhibition of human PC3 cells assessed as cell growth at 0.1 uM incubated for 48 hrs by sulforhodamine B assay relative to control; type: functional; details: PC-3, 48 h, read-out: Activity
MDA-MB-468 = experiment: Growth inhibition of human MDA-MB-468 cells assessed as cell growth at 0.1 uM incubated for 48 hrs by sulforhodamine B assay relative to control; type: functional; details: MDA-MB-468, 48 h, read-out: Activity
SR [8] = experiment: Growth inhibition of human SR cells assessed as cell growth at 1 uM incubated for 48 hrs by sulforhodamine B assay relative to control; type: functional; details: read-out: Activity
A549 [9] = experiment: Growth inhibition of human A549/ATCC cells assessed as cell growth at 1 uM incubated for 48 hrs by sulforhodamine B assay relative to control; type: functional; details: A549, 48 h, read-out: Activity
NCI-H322M = experiment: Growth inhibition of human NCI-H322M cells assessed as cell growth at 1 uM incubated for 48 hrs by sulforhodamine B assay relative to control; type: functional; details: read-out: Activity
NCI-H522 = experiment: Growth inhibition of human NCI-H522 cells assessed as cell growth at 1 uM incubated for 48 hrs by sulforhodamine B assay relative to control; type: functional; details: NCI-H522, 48 h, read-out: Activity
UACC-257 = experiment: Growth inhibition of human UACC257 cells assessed as cell growth at 1 uM incubated for 48 hrs by sulforhodamine B assay relative to control; type: functional; details: UACC-257, 48 h, read-out: Activity
IGROV-1 = experiment: Growth inhibition of human IGROV1 cells assessed as cell growth at 1 uM incubated for 48 hrs by sulforhodamine B assay relative to control; type: functional; details: IGROV-1, 48 h, read-out: Activity
PC-3 [10] = experiment: Growth inhibition of human PC3 cells assessed as cell growth at 1 uM incubated for 48 hrs by sulforhodamine B assay relative to control; type: functional; details: PC-3, 48 h, read-out: Activity
HOP-62 = experiment: Growth inhibition of human HOP62 cells assessed as cell growth at 100 uM incubated for 48 hrs by sulforhodamine B assay relative to control; type: functional; details: HOP-62, 48 h, read-out: Activity
MDA-MB-435 = experiment: Growth inhibition of human MDA-MB-435 cells assessed as cell growth at 100 uM incubated for 48 hrs by sulforhodamine B assay relative to control; type: functional; details: MDA-MB-435, 48 h, read-out: Activity
SK-MEL-2 [11] = experiment: Growth inhibition of human SK-MEL-2 cells assessed as cell growth at 100 uM incubated for 48 hrs by sulforhodamine B assay relative to control; type: functional; details: SK-MEL-2, 48 h, read-out: Activity
SK-MEL-28 = experiment: Growth inhibition of human SK-MEL-28 cells assessed as cell growth at 100 uM incubated for 48 hrs by sulforhodamine B assay relative to control; type: functional; details: SK-MEL-28, 48 h, read-out: Activity
786-0 = experiment: Growth inhibition of human 786-0 cells assessed as cell growth at 100 uM incubated for 48 hrs by sulforhodamine B assay relative to control; type: functional; details: 786-0, 48 h, read-out: Activity
MCF7 = experiment: Growth inhibition of human MCF7 cells assessed as cell growth at 100 uM incubated for 48 hrs by sulforhodamine B assay relative to control; type: functional; details: MCF7, 48 h, read-out: Activity
[12] = read-out: LC50 (the source's name)
[13] = read-out: pLC50 (the source's name) (converted)

## COc1cc(Cl)cc(-c2nn(-c3cccc(NC(=O)Nc4cccc(C(F)(F)F)c4)c3)cc2-c2ccncc2)c1
NCI-H23; read-out: GI50
  GI50: 1.76 µM
NCI-H23; read-out: LC50
  LC50: > 100 µM
NCI-H23; read-out: TGI
  TGI: 55.9 µM
NCI-H23; read-out: pGI50 (converted)
  GI50: 1.78 µM
NCI-H23; read-out: pLC50 (converted)
  LC50: > 100 µM
NCI-H23; read-out: pTGI (converted)
  TGI: 6.76 µM
HCC 2998; read-out: GI50
  GI50: 3.47 µM
HCC 2998; [12]
  CC50: 90.1 µM
HCC 2998; read-out: TGI
  TGI: 14 µM
HCC 2998; read-out: pGI50 (converted)
  GI50: 3.47 µM
HCC 2998; [13]
  CC50: 89.1 µM
HCC 2998; read-out: pTGI (converted)
  TGI: 14.1 µM
UACC-62
  IC50: 1.47 µM
UACC-62; read-out: GI50
  GI50: 1.47 µM
UACC-62; [12]
  CC50: 10.2 µM
UACC-62; read-out: TGI
  TGI: 33.4 µM
UACC-62; read-out: pGI50 (converted)
  GI50: 1.48 µM
UACC-62; [13]
  CC50: 10.2 µM
UACC-62; read-out: pTGI (converted)
  TGI: 3.8 µM
OVCAR-5; read-out: GI50
  GI50: 3.06 µM
OVCAR-5; [12]
  CC50: > 100 µM
OVCAR-5; read-out: TGI
  TGI: 30.1 µM
OVCAR-5; read-out: pGI50 (converted)
  GI50: 3.09 µM
OVCAR-5; [13]
  CC50: > 100 µM
OVCAR-5; read-out: pTGI (converted)
  TGI: 30.2 µM
BT-549; read-out: GI50
  GI50: 2.22 µM
BT-549; [12]
  CC50: > 100 µM
BT-549; read-out: TGI
  TGI: 55 µM
BT-549; read-out: pGI50 (converted)
  GI50: 2.24 µM
BT-549; [13]
  CC50: > 100 µM
BT-549; read-out: pTGI (converted)
  TGI: 5.62 µM
HL-60(TB)
  growth at 0.01 µM: 96%
SR [1]
  growth at 0.01 µM: 89%
A549 [2]
  growth at 0.01 µM: 100%
HT-29
  growth at 0.01 µM: 102%
LOX IMVI
  growth at 0.01 µM: 96%
SK-MEL-5 [3]
  growth at 0.01 µM: 96%
SN12C
  growth at 0.01 µM: 101%
PC-3 [4]
  growth at 0.01 µM: 91%
U-251
  growth at 0.1 µM: 93%
SK-MEL-2 [5]
  growth at 0.1 µM: 55%
SK-MEL-5 [6]
  growth at 0.1 µM: 98%
PC-3 [7]
  growth at 0.1 µM: 57%
MDA-MB-468
  growth at 0.1 µM: 92%
SR [8]
  growth at 1 µM: 55%
A549 [9]
  growth at 1 µM: 43%
NCI-H322M
  growth at 1 µM: 83%
NCI-H522
  growth at 1 µM: 33%
UACC-257
  growth at 1 µM: 78%
IGROV-1
  growth at 1 µM: 85%
PC-3 [10]
  growth at 1 µM: 27%
HOP-62
  growth at 100 µM: -41%
MDA-MB-435
  growth at 100 µM: -74%
SK-MEL-2 [11]
  growth at 100 µM: -68%
SK-MEL-28
  growth at 100 µM: -25%
786-0
  growth at 100 µM: -57%
MCF7
  growth at 100 µM: -24%
